Paper PMC6047675, “Neutral metalloaminopeptidases APN and MetAP2 as newly discovered anticancer molecular targets of actinomycin D and its simple analogs” (Oncotarget, 2018)
Read-outs that look alike come from different tables or passages of the source. Starred links: 1 amine or outer side, 2 acyl side, 3 side chain; linkers in the order of their positions; H or OH if unused. Positions of bridges follow the written chain, without caps; N, C: chain ends. Non-standard residues stand in square brackets, D forms with d. Residues, ends and D or L forms follow the SMILES beside them. Chains are numbered I, II in the order given. Actinocin(1to9) = Cc1c2oc3c(C)ccc(C(=O)[*:2])c3nc-2c(C(=O)[*:1])c(N)c1=O; Actinocin(9to1) = Cc1c2oc3c(C)ccc(C(=O)[*:1])c3nc-2c(C(=O)[*:2])c(N)c1=O; Pro(4-oxo) = O=C1CN[C@H](C(=O)O)C1; NMeV = CN[C@H](C(=O)O)C(C)C; Sar = CNCC(=O)O

How the values were obtained:
[1] = target: T1, human methionine aminopeptidase type 2 (HsMetAP2) (Homo sapiens, UniProt P50579); assay: Inhibition of recombinant human MetAP2, fluorogenic substrate Met-AMC; type: biochemical; conditions: for mechanism of inhibition of HsMetAP2: from Lineweaver-Burk and Dixon plots
T1 construct: purchased R&D Systems
T1 sequence (P50579 whole entry): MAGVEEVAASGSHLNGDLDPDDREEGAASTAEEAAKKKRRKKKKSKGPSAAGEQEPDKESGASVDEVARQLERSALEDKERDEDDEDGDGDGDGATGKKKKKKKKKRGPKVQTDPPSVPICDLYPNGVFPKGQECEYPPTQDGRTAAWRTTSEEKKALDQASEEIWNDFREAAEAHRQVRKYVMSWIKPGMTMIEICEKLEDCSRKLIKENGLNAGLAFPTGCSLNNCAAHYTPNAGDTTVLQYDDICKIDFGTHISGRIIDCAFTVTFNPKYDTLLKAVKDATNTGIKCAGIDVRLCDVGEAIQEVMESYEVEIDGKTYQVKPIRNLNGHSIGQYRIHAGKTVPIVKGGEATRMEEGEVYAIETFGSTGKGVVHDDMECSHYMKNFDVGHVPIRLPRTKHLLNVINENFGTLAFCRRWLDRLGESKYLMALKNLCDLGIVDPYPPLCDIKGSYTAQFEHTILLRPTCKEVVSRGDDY
From the text: (§1) Actinomycin D was purchased as a lyophilized powder from Sigma-Aldrich (Poznan, Poland), Actinomycin X2 was purchased form Adipogen (Liestal, Switzerland). Actinocine and Questiomycin A were synthesized according to a previously described procedure. Recombinant human APN and MetAP2 were purchased as a lyophilized powder from R&D Systems (Minneapolis, USA). Fluorogenic substrates Ala-AMC (L-alanine-4-methylcoumaryl-7-amide) and Met-AMC (L-methionine-4-methylcoumaryl-7-amide) were purchased from PeptaNova (Sandhausen, Germany). Spectrofluorometry was performed on a Spectra MAX Gemini EM fluorimeter (Molecular Devices, Sunnyvale, USA) in a 96-well plate format (Excitation = 355 nm, Emission = 460 nm). Calculations of the kinetic parameters were performed using the SoftMax Pro, GraphPad Prism and Microsoft Excel programs.
(§2) Recombinant human APN enzyme was dissolved in 50 mM Tris-HCl buffer (pH = 7.0) and used directly in the kinetic experiments. Recombinant human MetAP2 was obtained as a lyophilized powder from R&D Systems. The enzyme was dissolved in 100 mM Tris-maleate buffer containing 0.1 mM CoCl2, 100 mM NaCl and 0.075 % v/v albumin at pH = 7.5 and incubated for 30 minutes. After this activation, the enzyme was used directly in the kinetic experiments.
(§3) The inhibitors were screened against human APN and human MetAP2 at 37°C in the assay buffer as described above. For the steady-state measurements, the enzymes were preincubated for 30-60 min at 37°C with an inhibitor before adding the substrate (Ala-AMC, 40 μM for human APN or Met-AMC and 50 μM for MetAP2) to the wells. For the initial state measurements, the enzymes were preincubated for 15-30 min at 37°C before adding the substrate and inhibitor to the wells. The following conditions were used: (1) total volume 100 μL, (2) eight different inhibitor concentrations, and (3) enzyme concentration of 0.3 nM for human APN and 1 nM for MetAP2. The release of the AMC fluorophore was monitored. The linear portion of the progress curve was used to calculate the velocity. hPhePCH2Phe for APN and ebselen for MetAP2 were used as a positive control. The inhibition mechanism was determined from the Lineweaver-Burk and Dixon plot (Figure 2B and 2D). The IC50 values were calculated from the reaction velocity to inhibitor concentration plot fitted to the equation log[I] vs. response. The Ki values were equal to the IC50 for non-competitive inhibitors and were calculated for competitive inhibitors using the following equation: Ki = (IC50-[E]/2)/ (1 + ([S]/Km)), where the IC50 is the concentration of the inhibitor that effected 50% inhibition, [S] and Km are the substrate concentration and Michaelis constant in the absence of inhibitor, respectively, and [E] is the concentration of the enzyme.

[2] = target: T2, human alanine aminopeptidase (HsAPN) (Homo sapiens, UniProt P15144); assay: Inhibition of recombinant human APN, fluorogenic substrate Ala-AMC; type: biochemical; conditions: for mechanism of inhibition of HsAPN: from Lineweaver-Burk and Dixon plots
T2 construct: purchased R&D Systems
T2 sequence (P15144 whole entry): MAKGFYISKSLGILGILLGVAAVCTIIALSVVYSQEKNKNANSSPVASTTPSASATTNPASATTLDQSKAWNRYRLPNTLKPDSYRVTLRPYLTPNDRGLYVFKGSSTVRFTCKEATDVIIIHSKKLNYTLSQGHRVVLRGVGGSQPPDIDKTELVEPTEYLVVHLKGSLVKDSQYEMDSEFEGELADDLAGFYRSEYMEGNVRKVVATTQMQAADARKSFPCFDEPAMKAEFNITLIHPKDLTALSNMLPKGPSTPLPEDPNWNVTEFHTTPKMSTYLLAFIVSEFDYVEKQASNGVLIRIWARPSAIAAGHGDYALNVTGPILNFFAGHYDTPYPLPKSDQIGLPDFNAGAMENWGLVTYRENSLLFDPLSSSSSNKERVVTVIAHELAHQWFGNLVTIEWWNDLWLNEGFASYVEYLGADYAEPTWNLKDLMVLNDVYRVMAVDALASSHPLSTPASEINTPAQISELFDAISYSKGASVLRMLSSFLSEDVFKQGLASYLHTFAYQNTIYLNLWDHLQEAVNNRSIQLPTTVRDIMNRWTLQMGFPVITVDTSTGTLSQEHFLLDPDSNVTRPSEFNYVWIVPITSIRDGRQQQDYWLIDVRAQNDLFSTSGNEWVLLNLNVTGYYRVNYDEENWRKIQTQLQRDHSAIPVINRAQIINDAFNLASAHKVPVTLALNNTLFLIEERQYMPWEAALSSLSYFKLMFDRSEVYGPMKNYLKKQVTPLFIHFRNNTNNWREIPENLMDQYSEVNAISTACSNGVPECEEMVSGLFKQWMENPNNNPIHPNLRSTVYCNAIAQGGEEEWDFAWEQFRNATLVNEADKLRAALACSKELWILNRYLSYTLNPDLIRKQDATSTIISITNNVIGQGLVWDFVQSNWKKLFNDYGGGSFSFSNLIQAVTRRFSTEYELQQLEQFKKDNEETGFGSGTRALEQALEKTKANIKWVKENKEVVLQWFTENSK
From the text: as §1, §2, §3

[3] = system: human acute B- and T-lymphoblastic leukemia, cervix carcinoma and larynx carcinoma; set-up: method as in PMID 12431048; conditions: read-out: IC50 cytotoxicity; cited from earlier work
[4] = system: human leukemia cell line HL-60; conditions: read-out: LC50 (lethal concentration for a half of population), cytotoxicity HL-60; cited from earlier work
[5] = TRIS buffer, 37°C, average with standard deviation, at least three experiments, read-out: IC50 HsMetAP
[6] = TRIS buffer, 37°C, calculated by Cheng-Prusoff equations for non-competitive and competitive inhibitors, average with standard deviation, at least three experiments, read-out: Ki HsMetAP
[7] = more effective than Actinomycin D/X2
[8] = TRIS buffer, 37°C, average with standard deviation, at least three experiments, read-out: IC50 HsAPN
[9] = TRIS buffer, 37°C, calculated by Cheng-Prusoff equations for non-competitive and competitive inhibitors, average with standard deviation, at least three experiments, read-out: Ki HsAPN

Compound | IC50 [1, 5] | Ki [1, 6] | mechanism of inhibition of HsMetAP2 [1] | effectiveness relative to Actinomycin D/X2, HsMetAP2 [1, 7] | IC50 [2, 8] | Ki [2, 9] | mechanism of inhibition of HsAPN [2] | effectiveness relative to Actinomycin D/X2, HsAPN [2, 7] | IC50 [1] | Ki [1] | IC50 [2] | Ki [2] | IC50 [3] | CC50 [4] | times less effective, HsMetAP2 ([1]; in contrast to Actinocin) | decrease in activity for HsMetAP2 compared to the lead compound ([1]; lead compound = Actinomycin D) | times less effective, HsAPN ([2]; in contrast to Actinocin) | decrease in activity for HsAPN compared to the lead compound ([2]; lead compound = Actinomycin D)
Cc1c2oc3c(C)ccc(C(=O)O)c3nc-2c(C(=O)O)c(N)c1=O [Actinocin] | 2.34 ± 0.62 µM | 2.04 ± 0.23 µM | competitive | four times as effective | 7.25 ± 1.2 µM | 6.04 ± 0.51 µM | competitive | twice as effective |  |  |  |  |  |  |  |  |  | 
Cc1c2oc3c(C)ccc(C(=O)N[C@@H]4C(=O)N[C@H](C(C)C)C(=O)N5CCC[C@H]5C(=O)N(C)CC(=O)N(C)[C@@H](C(C)C)C(=O)O[C@@H]4C)c3nc-2c(C(=O)N[C@@H]2C(=O)N[C@H](C(C)C)C(=O)N3CCC[C@H]3C(=O)N(C)CC(=O)N(C)[C@@H](C(C)C)C(=O)O[C@@H]2C)c(N)c1=O [Actinomycin D] (I: T[dV]P[Sar][NMeV] / II: T[dV]P[Sar][NMeV]; ester I:1-I:C, II:1-II:C; linker I:N-II:N via Actinocin(9to1)) |  |  | non-competitive |  |  |  | non-competitive |  | 7.37 ± 0.56 µM | 7.37 ± 0.56 µM | 11.9 ± 1.1 µM | 11.9 ± 1.1 µM | 0.001 to 0.008 µM |  |  |  |  | 
Cc1c2oc3c(C)ccc(C(=O)N[C@@H]4C(=O)N[C@H](C(C)C)C(=O)N5CCC[C@H]5C(=O)N(C)CC(=O)N(C)[C@@H](C(C)C)C(=O)O[C@@H]4C)c3nc-2c(C(=O)N[C@@H]2C(=O)N[C@H](C(C)C)C(=O)N3CC(=O)C[C@H]3C(=O)N(C)CC(=O)N(C)[C@@H](C(C)C)C(=O)O[C@@H]2C)c(N)c1=O [Actinomycin X2, reference compound] (I: T[dV][Pro(4-oxo)][Sar][NMeV] / II: T[dV]P[Sar][NMeV]; ester I:1-I:C, II:1-II:C; linker I:N-II:N via Actinocin(1to9)) |  |  | non-competitive |  |  |  | non-competitive |  | 8.33 ± 0.75 µM | 8.33 ± 0.75 µM | 12.2 ± 1.4 µM | 12.2 ± 1.4 µM |  | 0.008 µM |  |  |  | 
Nc1cc2nc3ccccc3oc-2cc1=O [Questiomycin A] | 34.9 ± 3.2 µM | 30.4 ± 3.2 µM | competitive |  | 63 ± 3.2 µM | 52.5 ± 2.7 µM | competitive |  |  |  |  |  | 1 to 3 µM |  | 10 times | five-fold | 10 times | five-fold
